In US9809573B2, “Substituted pyridine derivatives useful as GSK-3 inhibitors” (priority 2013, dated 2017):
Where two headings read alike, the source gives them in different places.

Key:
GSK3β = GSK3β (Homo sapiens, UniProt P49841); experiment: GSK3β kinase assay (Caliper LabChip3000, fluoresceinated peptide substrate); assay type: biochemical
Procedure: (§1) The kinase assay was performed in V-bottom 384-well plates. […] The reaction was incubated at room temperature for 20 hours and terminated by adding 45 μl of 35 mM EDTA to each sample. The reaction mixture was analyzed on the Caliper LabChip3000 (Caliper, Hopkinton, Mass.) by electrophoretic separation of the unphosphorylated substrate and phosphorylated product. […] Compounds were dissolved at 10 mM in dimethylsulfoxide (DMSO) and evaluated at eleven concentrations. IC50 values were derived by non-linear regression analysis.

GSK3α = GSK3α (Homo sapiens, UniProt P49840); experiment: biochemical
Procedure: as §1

pTau = pTau assay (method not described); assay type: cell-based
[1] = first value of the cell, 250 pM enzyme, 20 uM ATP, 20 hours at room temperature, read-out: GSK3β/α (nM): GSK3β IC50
[2] = second value of the cell, 250 pM enzyme, 20 uM ATP, 20 hours at room temperature, read-out: GSK3β/α (nM): GSK3α IC50

Sequence of GSK3α (P49840 whole entry, species assumed): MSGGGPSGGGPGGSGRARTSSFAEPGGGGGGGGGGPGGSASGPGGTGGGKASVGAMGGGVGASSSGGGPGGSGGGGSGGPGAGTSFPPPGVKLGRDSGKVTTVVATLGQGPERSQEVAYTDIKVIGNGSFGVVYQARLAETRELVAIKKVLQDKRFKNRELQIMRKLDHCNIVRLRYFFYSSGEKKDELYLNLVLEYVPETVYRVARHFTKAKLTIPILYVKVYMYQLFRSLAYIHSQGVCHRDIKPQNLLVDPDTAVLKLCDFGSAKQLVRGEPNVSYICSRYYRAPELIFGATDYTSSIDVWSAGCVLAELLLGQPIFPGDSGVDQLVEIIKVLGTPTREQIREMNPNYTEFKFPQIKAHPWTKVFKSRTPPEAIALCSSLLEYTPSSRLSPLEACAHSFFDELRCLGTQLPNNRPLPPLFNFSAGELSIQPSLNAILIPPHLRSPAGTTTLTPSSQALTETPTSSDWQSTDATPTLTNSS
Sequence of GSK3β (P49841 whole entry, species assumed): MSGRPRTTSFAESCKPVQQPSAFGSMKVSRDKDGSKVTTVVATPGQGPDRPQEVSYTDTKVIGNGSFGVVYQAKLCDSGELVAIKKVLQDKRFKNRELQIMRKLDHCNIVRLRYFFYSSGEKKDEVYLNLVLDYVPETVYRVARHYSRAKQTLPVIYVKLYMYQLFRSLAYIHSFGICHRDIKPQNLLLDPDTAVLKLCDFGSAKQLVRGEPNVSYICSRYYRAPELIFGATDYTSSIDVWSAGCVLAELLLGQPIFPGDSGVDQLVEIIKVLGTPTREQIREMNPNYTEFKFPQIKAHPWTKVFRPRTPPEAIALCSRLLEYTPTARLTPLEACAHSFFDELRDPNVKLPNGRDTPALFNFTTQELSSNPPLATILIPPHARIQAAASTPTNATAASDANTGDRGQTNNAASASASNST

| IC50 (GSK3β; [1]) | IC50 (GSK3α; [2]) | IC50 (pTau; read-out: pTau) | IC50 (GSK3α) | IC50 (pTau; read-out: pTau (nM)) | SMILES | IC50 (GSK3β) |
| --- | --- | --- | --- | --- | --- | --- |
| 1.4 nM | 0.96 nM | 35 nM | – | – | O=C(Nc1cnccc1I)c1ccnc(NC(=O)C2CC2)c1 [Example 19, 2-(Cyclopropanecarboxamido)-N-(4-iodopyridin-3-yl)isonicotinamide] | – |
| 7.1 nM | 2.4 nM | 250 nM | – | – | O=C(Nc1cncc(C2CC2)c1)c1ccnc(NC(=O)C2CC2)c1 [Example 22, 2-(Cyclopropanecarboxamido)-N-(5-cyclopropylpyridin-3-yl)isonicotinamide] | – |
| – | – | – | 2.4 nM | 48 nM | O=C(Nc1cnccc1C(O)C(F)(F)F)c1ccnc(NC(=O)C2CC2)c1 (stereo not drawn) [Example 23, 2-(Cyclopropanecarboxamido)-N-(4-(2,2,2-trifluoro-1-hydroxyethyl)pyridin-3-yl)isonicotinamide] | 5.8 nM |
| – | – | – | 1.2 nM | 110 nM | O=C(Nc1cnccc1C(=O)C(F)(F)F)c1ccnc(NC(=O)C2CC2)c1 [Example 24, 2-(Cyclopropanecarboxamido)-N-(4-(2,2,2-trifluoroacetyl)pyridin-3-yl)isonicotinamide] | 0.95 nM |
| 2.8 nM | 0.85 nM | 49 nM | – | – | Cc1cc(-c2ccncc2NC(=O)c2ccnc(NC(=O)C3CC3)c2)cs1 [Example 43, 2-(Cyclopropanecarboxamido)-N-(4-(5-methylthiophen-3-yl)pyridin-3-yl)isonicotinamide] | – |
| – | – | – | 0.19 nM | 5.1 nM | O=C(Nc1cnccc1N1CCC(F)(F)CC1)c1ccnc(NC(=O)C2CC2)c1 [Example 45, 2-(Cyclopropanecarboxamido)-N-(4-(4,4-difluoropiperidin-1-yl)pyridin-3-yl)isonicotinamide] | 0.22 nM |
| 37 nM | 14 nM | 1200 nM | – | – | O=C(Nc1cnccc1N1CCCCCC1)c1ccnc(NC(=O)C2CC2)c1 [Example 53, N-(4-(azepan-1-yl)pyridin-3-yl)-2-(cyclopropanecarboxamido)isonicotinamide] | – |
| 13 nM | 8.4 nM | 230 nM | – | – | O=C(Nc1cnccc1-c1ccc(C(F)(F)F)cc1)c1ccnc(NC(=O)C2CC2)c1 [Example 56, 2-(Cyclopropanecarboxamido)-N-(4-(4-(trifluoromethyl)phenyl)pyridin-3-yl)isonicotinamide] | – |
| 78 nM | 70 nM | 8200 nM | – | – | O=C(Nc1c(-c2ccccc2)ccnc1Cl)c1ccnc(NC(=O)C2CC2)c1 [Example 59, N-(2-chloro-4-phenylpyridin-3-yl)-2-(cyclopropanecarboxamido)isonicotinamide] | – |
| 2.6 nM | 4.8 nM | 310 nM | – | – | COc1ccnc(-c2ccccc2)c1NC(=O)c1ccnc(NC(=O)C2CC2)c1 [Example 62, 2-(Cyclopropanecarboxamido)-N-(4-methoxy-2-phenylpyridin-3-yl)isonicotinamide] | – |
| 12 nM | 56 nM | 4100 nM | – | – | O=C(Nc1c(-c2ccccc2)ncc2ccccc12)c1ccnc(NC(=O)C2CC2)c1 [Example 63, 2-(Cyclopropanecarboxamido)-N-(3-phenylisoquinolin-4-yl)isonicotinamide] | – |
| 97 nM | 76 nM | ≥ 10000 nM | – | – | O=C(Nc1cnccc1-c1cncnc1)c1ccnc(NC(=O)C2CC2)c1 [Example 64, 2-(Cyclopropanecarboxamido)-N-(4-(pyrimidin-5-yl)pyridin-3-yl)isonicotinamide] | – |
| 7 nM | 4.5 nM | 280 nM | – | – | O=C(Nc1cnccc1-c1ccc(C(F)(F)F)cc1Cl)c1ccnc(NC(=O)C2CC2)c1 [Example 70, N-(4-(2-chloro-4-(trifluoromethyl)phenyl)pyridin-3-yl)-2-(cyclopropanecarboxamido)isonicotinamide] | – |
| 3.1 nM | 6.4 nM | 250 nM | – | – | CCCc1ccc(-c2ccncc2NC(=O)c2ccnc(NC(=O)C3CC3)c2)cc1 [Example 72, 2-(Cyclopropanecarboxamido)-N-(4-(4-propylphenyl)pyridin-3-yl)isonicotinamide] | – |
| 30 nM | 7.4 nM | 460 nM | – | – | CC(C)c1ccc(-c2ccncc2NC(=O)c2ccnc(NC(=O)C3CC3)c2)cc1 [Example 75, 2-(Cyclopropanecarboxamido)-N-(4-(4-isopropylphenyl)pyridine-3-yl)isonicotinamide] | – |
| 1.5 nM | 0.46 nM | 34 nM | – | – | O=C(Nc1cnccc1N1CCCC(F)(F)C1)c1ccnc(NC(=O)C2CC2)c1 [Example 80, 2-(Cyclopropanecarboxamido)-N-(4-(3,3-difluoropiperidin-1-yl)pyridin-3-yl)isonicotinamide] | – |
| 1.3 nM | 0.58 nM | 31 nM | – | – | COc1ccc(-c2ccncc2NC(=O)c2ccnc(NC(=O)C3CC3)c2)c(F)c1 [Example 81, 2-(Cyclopropanecarboxamido)-N-(4-(2-fluoro-4-methoxyphenyl)pyridin-3-yl)isonicotinamide] | – |
| 9.6 nM | 4 nM | 200 nM | – | – | O=C(Nc1cnccc1-c1ccc(C(F)(F)F)cc1F)c1ccnc(NC(=O)C2CC2)c1 [Example 82, 2-(Cyclopropanecarboxamido)-N-(4-(2-fluoro-4-(trifluoromethyl)phenyl)pyridine-3-yl)isonicotinamide] | – |
| 71 nM | 49 nM | 4400 nM | – | – | O=C(Nc1cnccc1N1CCC(F)(F)C1)c1ccnc(NC(=O)C2CC2)c1 [Example 83, 2-(Cyclopropanecarboxamido)-N-(4-(3,3-difluoropyrrolidin-1-yl)pyridin-3-yl)isonicotinamide] | – |
| 2.9 nM | 0.94 nM | 33 nM | – | – | N#Cc1ccc(-c2ccncc2NC(=O)c2ccnc(NC(=O)C3CC3)c2)c(F)c1 [Example 85, N-(4-(4-cyano-2-fluorophenyl)pyridin-3-yl)-2-(cyclopropanecarboxamido)isonicotinamide] | – |
| 54 nM | 26 nM | 630 nM | – | – | O=C(Nc1cnccc1-c1cc(Cl)ccc1F)c1ccnc(NC(=O)C2CC2)c1 [Example 86, 2-(Cyclopropanecarboxamido)-N-(4-(2-fluoro-5-chloro-phenyl)pyridin-3-yl)isonicotinamide] | – |
| 9.1 nM | 3.9 nM | 170 nM | – | – | O=C(Nc1c(N2CCOCC2)ccnc1F)c1ccnc(NC(=O)C2CC2)c1 [Example 88, 2-(Cyclopropanecarboxamido)-N-(2-fluoro-4-morpholinopyridin-3-yl)isonicotinamide] | – |
| 24 nM | 11 nM | 460 nM | – | – | CN(C)C(=O)c1ccc(-c2ccncc2NC(=O)c2ccnc(NC(=O)C3CC3)c2)c(F)c1 [Example 92, 2-(Cyclopropanecarboxamido)-N-(4-(4-(dimethylcarbamoyl)-2-fluorophenyl)pyridin-3-yl)isonicotinamide] | – |

| SMILES | IC50 (GSK3β; [1]) | IC50 (GSK3α; [2]) | IC50 (pTau; read-out: pTau) | IC50 (GSK3α) | IC50 (pTau; read-out: pTau (nM)) | IC50 (GSK3β) |
| --- | --- | --- | --- | --- | --- | --- |
| O=C(Nc1cnccc1N1CCOCC1)c1ccnc(NC(=O)C2CC2)c1 [Example 30, 2-(Cyclopropanecarboxamido)-N-(4-morpholinopyridin-3-yl)isonicotinamide] | – | 0.54 nM | 23 nM | – | – | 1 nM |
| O=C(Nc1cnccc1C1CCC1)c1ccnc(NC(=O)C2CC2)c1 [Example 41, N-(4-cyclobutylpyridin-3-yl)-2-(cyclopropanecarboxamido)isonicotinamide] | – | 3 nM | 380 nM | – | – | 7.5 nM |
| O=C(Nc1cnccc1N1CCCCC1)c1ccnc(NC(=O)C2CC2)c1 [Example 50, 2-(Cyclopropanecarboxamido)-N-(4-(piperidin-1-yl)pyridin-3-yl)isonicotinamide] | – | 0.35 nM | 23 nM | – | – | 0.99 nM |
| C[C@@H]1COCCN1c1ccncc1NC(=O)c1ccnc(NC(=O)C2CC2)c1 [Example 52, (R)-2-(cyclopropanecarboxamido)-N-(4-(3-methylmorpholino)pyridin-3-yl)isonicotinamide] | – | 0.21 nM | 12 nM | – | – | 0.49 nM |
| C[C@H]1COCCN1c1ccncc1NC(=O)c1ccnc(NC(=O)C2CC2)c1 [Example 54, (S)-2-(cyclopropanecarboxamido)-N-(4-(3-methylmorpholino)pyridin-3-yl)isonicotinamide] | – | 0.07 nM | 2 nM | – | – | 0.06 nM |
| O=C(Nc1cnccc1N1C2CCC1CC2)c1ccnc(NC(=O)C2CC2)c1 [Example 60, N-(4-(1s,4s)-7-azabicyclo[2.2.1]heptan-7-yl)pyridin-3-yl)-2-(cyclopropanecarboxamido)isonicotinamide] | 16 nM | 5.7 nM | 620 nM | – | – | – |
| C[C@@H]1CN(c2ccncc2NC(=O)c2ccnc(NC(=O)C3CC3)c2)C[C@H](C)O1 [Example 79, 2-(Cyclopropanecarboxamido)-N-(4-((2S,6R)-2,6-dimethylmorpholino)pyridin-3-yl)isonicotinamide] | – | 5.5 nM | 190 nM | – | – | 14 nM |
| CC1(C)CN(c2ccncc2NC(=O)c2ccnc(NC(=O)C3CC3)c2)CCO1 [Example 87, 2-(Cyclopropanecarboxamido)-N-(4-(2,2-dimethylmorpholino)pyridin-3-yl)isonicotinamide] | – | 0.39 nM | 25 nM | – | – | 0.79 nM |
| CC1(C)COCCN1c1ccncc1NC(=O)c1ccnc(NC(=O)C2CC2)c1 [Example 90, 2-(Cyclopropanecarboxamido)-N-(4-(3,3-dimethylmorpholino)pyridin-3-yl)isonicotinamide] | – | 0.1 nM | 0.4 nM | – | – | 0.15 nM |
